Measurements reported in patent US6596500B1, “Binding of retinoids to M6P/IGF-II receptor” (The General Hospital Corporation, priority 1998, dated 2003).

What was measured:
P388D1 cells = test: Morphology, growth and apoptosis of P388D1 cells overexpressing M6P/IGF2R; assay type: cell-based, mouse; conditions: for Cell morphology: 1 μM RA for 24 hours
Method: FIG. 10 is a graph showing the effect of RA treatment on growth rate of P388D1 cells overexpressing M6P/IGF2R protein and P388D1 controls. Open circles, vector control cells without RA treatment; closed circles, vector control cells with 1 μM RA treatment; open triangles, overexpressing cells without RA treatment; closed triangles overexpressing cells with 1 μM RA treatment.
We examined M6P/IGF2R-mediated effects of RA in mouse macrophage P388D1 cells, which are the best characterized cells that lack the M6P/IGF2R protein.

M6P/IGF-II receptor = target: T1, M6P/IGF-II receptor (Rattus norvegicus, UniProt G3V824); test: Internalization of 125I-IGF-II in cultured cardiac myocytes; assay type: cell-based; conditions: RA 2 μM; 2 h
T1 construct: cultured neonatal rat cardiac myocytes, which were known to express high levels of the M6P/IGF-II receptor; endogenous in cells; host or cells: primary neonatal rat cardiac myocytes
T1 sequence (G3V824 36-2481): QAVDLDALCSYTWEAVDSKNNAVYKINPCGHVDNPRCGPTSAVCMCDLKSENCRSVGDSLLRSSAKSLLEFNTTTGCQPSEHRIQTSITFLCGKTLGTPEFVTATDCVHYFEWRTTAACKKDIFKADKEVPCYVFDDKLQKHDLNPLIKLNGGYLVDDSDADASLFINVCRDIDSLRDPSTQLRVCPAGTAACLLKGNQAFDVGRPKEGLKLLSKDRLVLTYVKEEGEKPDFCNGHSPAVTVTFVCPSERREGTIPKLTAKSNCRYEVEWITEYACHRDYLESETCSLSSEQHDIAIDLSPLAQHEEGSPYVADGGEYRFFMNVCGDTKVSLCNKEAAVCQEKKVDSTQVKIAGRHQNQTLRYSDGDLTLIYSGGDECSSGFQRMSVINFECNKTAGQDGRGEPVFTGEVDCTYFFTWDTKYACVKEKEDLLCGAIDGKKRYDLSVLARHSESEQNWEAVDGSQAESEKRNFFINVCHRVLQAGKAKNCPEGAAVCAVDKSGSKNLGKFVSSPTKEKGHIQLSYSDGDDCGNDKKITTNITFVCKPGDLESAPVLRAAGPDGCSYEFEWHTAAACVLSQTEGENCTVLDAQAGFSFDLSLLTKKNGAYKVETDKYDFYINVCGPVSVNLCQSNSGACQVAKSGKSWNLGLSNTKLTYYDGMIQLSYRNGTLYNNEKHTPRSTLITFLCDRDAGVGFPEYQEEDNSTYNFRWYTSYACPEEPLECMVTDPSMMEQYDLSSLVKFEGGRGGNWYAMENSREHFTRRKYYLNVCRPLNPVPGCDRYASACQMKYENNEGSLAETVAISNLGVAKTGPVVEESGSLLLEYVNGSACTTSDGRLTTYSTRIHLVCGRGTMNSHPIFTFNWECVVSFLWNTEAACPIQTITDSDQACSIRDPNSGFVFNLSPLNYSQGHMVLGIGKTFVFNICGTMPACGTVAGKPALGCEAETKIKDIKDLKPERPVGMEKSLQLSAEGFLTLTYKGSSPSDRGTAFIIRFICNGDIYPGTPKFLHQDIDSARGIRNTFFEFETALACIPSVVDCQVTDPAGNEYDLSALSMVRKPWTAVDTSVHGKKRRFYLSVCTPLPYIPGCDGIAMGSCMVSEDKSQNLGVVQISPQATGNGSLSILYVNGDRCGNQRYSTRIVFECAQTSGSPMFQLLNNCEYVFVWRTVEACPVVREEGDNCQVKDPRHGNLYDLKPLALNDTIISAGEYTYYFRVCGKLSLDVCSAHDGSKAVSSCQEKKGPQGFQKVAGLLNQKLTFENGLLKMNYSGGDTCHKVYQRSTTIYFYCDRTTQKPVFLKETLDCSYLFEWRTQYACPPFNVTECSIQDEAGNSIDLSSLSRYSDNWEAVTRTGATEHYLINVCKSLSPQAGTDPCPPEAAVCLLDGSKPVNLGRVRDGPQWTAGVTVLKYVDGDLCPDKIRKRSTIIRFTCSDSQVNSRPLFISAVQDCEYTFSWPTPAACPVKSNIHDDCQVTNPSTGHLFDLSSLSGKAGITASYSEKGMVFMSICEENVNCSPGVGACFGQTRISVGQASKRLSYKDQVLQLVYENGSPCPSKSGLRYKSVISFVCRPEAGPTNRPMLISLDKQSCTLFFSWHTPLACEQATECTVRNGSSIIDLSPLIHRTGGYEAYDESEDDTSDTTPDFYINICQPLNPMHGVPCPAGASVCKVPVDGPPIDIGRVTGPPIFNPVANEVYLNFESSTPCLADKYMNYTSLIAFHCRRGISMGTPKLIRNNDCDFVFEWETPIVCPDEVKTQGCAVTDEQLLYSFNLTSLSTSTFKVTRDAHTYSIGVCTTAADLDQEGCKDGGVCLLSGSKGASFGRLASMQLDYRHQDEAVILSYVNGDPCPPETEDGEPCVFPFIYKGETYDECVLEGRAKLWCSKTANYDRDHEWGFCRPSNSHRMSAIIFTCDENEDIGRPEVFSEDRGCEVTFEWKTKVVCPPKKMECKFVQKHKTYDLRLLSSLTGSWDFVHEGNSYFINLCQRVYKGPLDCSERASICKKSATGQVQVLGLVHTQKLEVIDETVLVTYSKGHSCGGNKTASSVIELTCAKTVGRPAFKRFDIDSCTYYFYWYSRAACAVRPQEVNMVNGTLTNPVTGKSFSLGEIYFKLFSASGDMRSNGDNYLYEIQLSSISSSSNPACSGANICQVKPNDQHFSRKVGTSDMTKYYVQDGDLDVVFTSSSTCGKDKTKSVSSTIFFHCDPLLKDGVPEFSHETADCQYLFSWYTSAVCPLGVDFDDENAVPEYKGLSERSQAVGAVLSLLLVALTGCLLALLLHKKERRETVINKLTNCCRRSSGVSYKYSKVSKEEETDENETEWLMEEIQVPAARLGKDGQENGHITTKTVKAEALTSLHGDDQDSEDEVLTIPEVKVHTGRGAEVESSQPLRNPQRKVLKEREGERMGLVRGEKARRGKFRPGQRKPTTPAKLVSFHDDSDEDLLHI
Method: FIG. 5 is a histogram summarizing data on the effect of RA on the internalization of ^125I-IGF-II. Assay was performed by incubating cells at […] for 2 h in media (150 mM NaCl, 5 mM KCl, 1.2 mM MgSO4, 8 mM glucose, 100 mM Hepes, pH 7.6) or F-10 culture medium containing ^125I-IGF-II (0.5 ng/ml) with or without excess unlabeled IGF-II (2 μg/ml), in the presence or absence of 2 μM RA. Following the incubation, the cells were washed three times with ice-cold PBS, and cell-associated radioactivity was determined by a gamma counter.
The primary functions of the Man-6-P/IGF-II receptor are to mediate endocytosis of extracellular M6P-containing proteins (e.g. lysosomal enzymes) and IGF-II and to sort newly synthesized lysosomal enzymes. Therefore, an important question raised by the direct interaction of RA with M6P/IGF2R is whether RA influences these functions of the receptor. To answer this question, we examined the effect of RA on endocytosis of exogenous β-glucuronidase and ^125I-IGF-II and intracellular activity of acid phosphatase in cultured neonatal rat cardiac myocytes, which were known to express high levels of the M6P/IGF-II receptor (Nissley et al., 1993, Mol. Reprod. Dev. 35:408-413). […] This indicated an increased sorting of lysosomal enzymes) (FIGS. 4-6). […]

M6P/IGF2R = M6P/IGF2R (Rattus norvegicus, UniProt G3V824); test: β-glucuronidase binding to saponin-permeabilized cardiac myocytes; assay type: cell-based; design: endogenous in cells; host or cells: primary neonatal rat cardiac fibroblasts; conditions: RA 1 μM; saponin-permeabilized neonatal rat cardiac myocytes
Sequence of M6P/IGF2R (G3V824 36-2481): as above
Method: FIG. 3 is a histogram summarizing data on the effect of RA (1 μM) on β-glucuronidase binding to permeabilized neonatal rat cardiac myocytes (n=3).
To determine how these ligands interact in binding to the same receptor, we examined the effects of M6P and IGF-II on the [^3H]RA-affinity photolabeling of the M6P/IGF-II receptor. […] The [^3H]RA labeling of M6P/IGF-II receptor was 2-fold greater in the presence of 5 mM M6P than in the absence of M6P, as measured by NIH Image, n=3. Similar results were obtained by measurement of the binding of [^3H]RA to the partially purified receptors (FIG. 2). The increased binding of RA to the receptor in the presence of M6P appeared to be the result of increased binding affinity. […]
β-glucuronidase Binding and Endocytosis For binding assays, cells were permeabilized with saponin, incubated with β-glucuronidase (20,000 units/ml) with or without 1 μM RA for 3 h on ice, washed, solubilized and assayed for β-glucuronidase essentially as described by Miniti et al., 1992, J. Biol. Chem. 267:9000-9004. Specific enzyme binding was calculated by subtracting nonspecific binding (in the presence of 10 mM M6P) from total binding.

[1] = system: neonatal rat cardiac myocytes; test: Growth, morphology and apoptosis of cardiac myocytes; assay type: cell-based
Method: Cultured neonatal rat cardiac myocytes were known to express high levels of the M6P/IGF2R protein. The effect of RA on the growth of normal, neonatal rat cardiac myocytes was examined.
Cell Isolation and Culture For the photoaffinity labeling experiments, cardiac myocytes were isolated from 1-day-old neonatal Sprague-Dawley rats, using the Neonatal Cardiomyocyte Isolation System (Worthington). The isolated cell were cultured on Petri dishes with culture medium (F-10 nutrient mixture/10% horse serum/5% fetal bovine serum/50 μg/ml streptomycin/50 units/ml penicillin G). Cells were used for experiments after 2-6 days of culture.

[2] = system: neonatal rat cardiac myocytes; test: Cellular acid phosphatase activity in cultured cardiac myocytes; assay type: cell-based; conditions: RA 2 μM; various times
Method: FIG. 6. is a graph summarizing data on the effect of RA on cellular acid phosphatase activity. Cultured neonatal rat cardiac myocytes were treated with 2 μM RA at 37° C. for various time, washed and harvested. Cellular proteins were then solubilized by sonication and acid phosphatase activity was assayed using a Diagnostics Acid Phosphatase kit (Sigma). Dotted line represents control cells. Solid line represents RA-treated cells. Bars represent standard error or the mean (n=4).
The primary functions of the Man-6-P/IGF-II receptor are to mediate endocytosis of extracellular M6P-containing proteins (e.g. lysosomal enzymes) and IGF-II and to sort newly synthesized lysosomal enzymes. Therefore, an important question raised by the direct interaction of RA with M6P/IGF2R is whether RA influences these functions of the receptor. To answer this question, we examined the effect of RA on endocytosis of exogenous β-glucuronidase and ^125I-IGF-II and intracellular activity of acid phosphatase in cultured neonatal rat cardiac myocytes, which were known to express high levels of the M6P/IGF-II receptor (Nissley et al., 1993, Mol. Reprod. Dev. 35:408-413). […] This indicated an increased sorting of lysosomal enzymes) (FIGS. 4-6). […] These effects of RA were not altered in the presence of a protein synthesis inhibitor (0.5 mM cycloheximide) and were not observed in the receptor-negative P388D1 cells. […]

Increase of internalization of IGF-II (M6P/IGF-II receptor): 30-50%
M6P-inhibitable binding of β-glucuronidase to cells, presence vs absence of RA (M6P/IGF2R): 2-3 times
Structure (SMILES): CC1=C(/C=C/C(C)=C/C=C/C(C)=C/C(=O)O)C(C)(C)CCC1 [RA, all-trans-retinoic acid]
Cell morphology (P388D1 cells; P388D1 cells overexpressing M6P/IGF2R): remarkable changes in cell morphology
Cell morphology (P388D1 cells; control P388D1 cells transformed with vector alone): no such changes
Cell growth (proliferation) (P388D1 cells; 1 μM RA, P388D1 cells overexpressing M6P/IGF2R): grew much more slowly
Apoptotic cells (fluorescence staining of fragmented DNA) (P388D1 cells; RA, overexpressing P388D1 cells vs controls): much higher number of apoptotic cells
Cell morphology and growth ([1]; 48 hours): marked alteration of cell morphology, and inhibition of growth
Apoptotic cells (Hoechst 33258 nuclear staining) ([1]; RA-treated cultures vs controls): many more apoptotic cells
Cellular acid phosphatase activity [2]: induced a transient cellular accumulation of acid phosphatase
